The text below walks through data of ChEMBL document CHEMBL1146823 (Bioorg Med Chem Lett, 2004).

One may read the IC50 as the concentration that gives 50% inhibition.

Each structure is given as a SMILES string.

The first experiment addresses T1, Carbonic anhydrase 4 (Bos taurus, UniProt Q95323).
T1 sequence (Q95323 whole entry): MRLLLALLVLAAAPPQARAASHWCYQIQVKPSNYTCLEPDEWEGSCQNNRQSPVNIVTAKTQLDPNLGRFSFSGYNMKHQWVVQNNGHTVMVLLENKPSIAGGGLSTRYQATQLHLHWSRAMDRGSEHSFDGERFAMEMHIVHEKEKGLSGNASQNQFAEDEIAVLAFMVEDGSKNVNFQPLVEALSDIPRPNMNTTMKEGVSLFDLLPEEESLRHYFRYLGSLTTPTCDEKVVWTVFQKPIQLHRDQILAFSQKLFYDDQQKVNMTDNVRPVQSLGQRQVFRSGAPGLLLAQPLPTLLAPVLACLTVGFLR
Description: Inhibitory activity of compound against bovine carbonic anhydrase IV
On to `NS(=O)(=O)c1ccc(S(=O)(=O)Nc2cccc3c(Cl)c[nH]c23)cc1`, for which the half-inhibitory concentration (IC50) was 65 nM.

`Cc1ccc(-c2cc(C(F)(F)F)nn2-c2ccc(S(N)(=O)=O)cc2)cc1` [CELECOXIB] had an IC50 of 290 nM.

For the compound `NS(=O)(=O)c1cc(Cl)c(Cl)c(S(N)(=O)=O)c1` [DICHLORPHENAMIDE], half-maximal inhibition (IC50) required 380 nM.

Consider `CC(=O)/N=c1/sc(S(N)(=O)=O)nn1C` [METHAZOLAMIDE], for which the half-inhibitory concentration (IC50) worked out at […].

Take `CCN1CCCC1CNC(=O)c1cc(S(N)(=O)=O)ccc1OC` (configuration not stated) [SULPIRIDE]: the IC50 is 620 nM.

In turn, `CC1(C)O[C@@H]2[C@@H](CO[C@@]3(COS(N)(=O)=O)OC(C)(C)O[C@@H]23)O1` [TOPIRAMATE] returned an IC50 of 54 nM.

A further experiment deals with Carbonic anhydrase 1 (Homo sapiens, UniProt P00915).
Sequence of Carbonic anhydrase 1 (P00915 whole entry): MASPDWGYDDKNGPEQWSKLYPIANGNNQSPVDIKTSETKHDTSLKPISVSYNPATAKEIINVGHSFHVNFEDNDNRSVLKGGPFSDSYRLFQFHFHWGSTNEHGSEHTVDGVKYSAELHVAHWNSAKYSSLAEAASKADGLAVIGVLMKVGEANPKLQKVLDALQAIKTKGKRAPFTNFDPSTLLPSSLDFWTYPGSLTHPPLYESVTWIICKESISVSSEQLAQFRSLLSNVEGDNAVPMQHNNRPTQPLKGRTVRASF
Description: Inhibitory activity of compound against human carbonic anhydrase I
The compound `C[C@]12CC[C@@H]3c4ccc(OS(N)(=O)=O)cc4CCC3[C@@H]1CCC2=O` (single isomer, unassigned) [EMATE] had an IC50 of 37 nM.
